Experimental data from patent US20240027453A1, “METHOD FOR DETECTION AND QUANTITATIVE MONITORING OF INFECTIONS WITH HERPESVIRUSES” (The Trustees of Princeton University, priority 2020, published 2024).
Where two headings read alike, the source gives them in different places.

Test system: HCMV
Format: cell-based
Experimental: In example herpesvirus PRM assay methods shown herein, cell pellets were lysed in 2% SDS, 100 mM NaCl, 0.5 mM EDTA, 50 mM Tris, pH 8.2, and 50 μg of protein was reduced and alkylated with 25 mM TCEP and 50 mM CAM respectively for 20 min at 70° C. Proteins were then precipitated via methanol chloroform precipitation (Wessel & Flugg, Anal Biochem. 138(1):141-143, 1984), resuspended in 50 mM HEPES, pH 8.2 and digested overnight with trypsin (50:1 protein:enzyme w/w ratio). Digested peptides were desalted by SDB-RPS StageTip as previously described (Lum et al., Cell Syst., 7(6):[…], 2018; Greco et al., Methods Mol Biol 1410:39-63, 2016; Federspiel & Cristea, Methods Mol Biol., 1977:115-143, 2019).
Peptides (1.0 μg on column) were analyzed by LC-MS/MS using a Dionex Ultimate 3000 UHPLC coupled online to an EASYSpray ion source and a Q Exactive HF. Peptides were separated on an EASYSpray C18 column (75 μm×25 cm) heated to 50° C. using a linear gradient of 5% B to 32% B over 60 min at a flow rate of 250 nL/min and were ionized at 1.7 kv. Mobile phase A consisted of 0.1% FA in H2O and mobile phase B consisted of 0.1% FA, 2.9% H2O in ACN.
The PRM method was controlled by a peptide inclusion list with retention time windows of 6 min for selected precursor ions.
The PRM assay was developed and analyzed using the open-source software Skyline (Maclean et al., Bioinformatics 26(7):966-968, 2010). Summed area under the curve of 3-4 transitions per peptide was used for quantitation. Targeted peptides were normalized to host protein loading control peptides. Peptide values for each sample were scaled to the average of each peptide across all runs. The average of multiple peptides was used as the inferred value for the protein measurement when more than one peptide was quantified (Federspiel et al., PLoS Biol. 17(9):e3000437. Doi: 10.1371/journal.pbio.3000437). PRM quantitation data were graphed using the Python Seaborn and Matplotlib libraries.
MRC5 primary human fibroblasts (HFs) (ATCC CCL-171) were used as the model system for HSV-1 and HCMV infections and were cultured in complete growth medium (DMEM supplemented with 10% fetal bovine serum and 1% penicillin-streptomycin antibiotics) at 37° C. and 5% CO2. iSLK.219 cells harboring latent KSHV (a gift from Dr. Britt Glaunsinger, University of California, Berkeley) were grown in complete growth medium supplemented with 500 μg/ml hygromycin (ThermoFisher Scientific, 10687010) at 37° C. and 5% CO2. All cells were used for experiments within a maximum of 10 passages.
Wild type HSV-1 strain 17+ (a gift from Beate Sodeik, Hannover Medical School, Hannover, Germany) was propagated as previously described (Diner et al., 2015). Briefly, PO stocks were generated by electroporating pBAC-HSV-1 into U-2 OS cells. […] In a similar manner, wild type HCMV strain AD169 was produced from BAC electroporation into HFs and working stocks were propagated by infecting HFs at a low level. In both cases, cell-associated virus was released by sonication, combined with supernatant virus, then concentrated by ultracentrifugation (20,000 rpm, 2 hours, 4° C. with SW28 swinging bucket rotor [Beckman Coulter]) over a 10% ficoll (HSV-1) or 20% sorbitol (HCMV) cushion. Virus stock titers were determined by plaque assay for HSV-1 or tissue culture infectious dose (TCID50) for HCMV and infections were performed at a multiplicity of infection (MOI) of 3.
12 hours prior to virus infection or reactivation, cells were treated with either the small molecule drug or DMSO/PBS control at an equivalent volume. […] For infection cycles lasting longer than 24 hours, small molecule drugs were re-added to the cell culture medium every 24 hours. Upon collection, cells were rinsed with PBS, scraped into a microcentrifuge tube, pelleted by centrifugation, and rinsed again with PBS.

Nc1c(S(=O)(=O)c2ccccc2)c2nc3ccccc3nc2n1-c1ccc(F)cc1 [CAY10602]
GO (P16750) protein level (timepoint 72, L): 0.05989 | IR11 (P16809) protein level (timepoint 72, L): 0.4344 | MCP (P16729) protein level (timepoint 72, L): 0.02624 | SCP (Q7M6N6) protein level (timepoint 72, L): 0.015 | TRM2 (P16792) protein level (timepoint 72, L): 0.0795 | UL22A (P16845) protein level (timepoint 72, L): 0.215 | UL25 (P16761) protein level (timepoint 72, L): 0.096 | UL29 (P16764) protein level (timepoint 72, L): 0.506 | UL30 (P16765) protein level (timepoint 72, L): 0.1431 | UL31 (P16848) protein level (timepoint 72, L): 0.1447 | UL43 (P16781) protein level (timepoint 72, L): 0.03176 | UL52 (P16793) protein level (timepoint 72, L): 0.1191 | UL76 (P16725) protein level (timepoint 72, L): 0.03192 | UL80 (P16753) protein level (timepoint 72, L): 0.06052 | UL82 (P06726) protein level (timepoint 72, L): 0.1042 | UL87 (P16730) protein level (timepoint 72, L): 0.09029 | UL88 (P16731) protein level (timepoint 72, L): 0.1686 | UL94 (P16800) protein level (timepoint 72, L): 0.1145 | UL99 (P13200) protein level (timepoint 72, L): 0.05513 | UL103 (P16734) protein level (timepoint 72, L): 0.09275 | UL117 (P16770) protein level (timepoint 72, L): 0.3151 | gH (P12824) protein level (timepoint 72, L): 0.1032 | gL (P16832) protein level (timepoint 72, L): 0.08246 | gM (P16733) protein level (timepoint 72, L): 0.06242 | gN (P16795) protein level (timepoint 72, L): 0.1122 | IR10 (P16808) protein level (timepoint 72, LL): 0.03558 | IR12 (P16810) protein level (timepoint 72, LL): 0.4497 | TRM3 (P16732) protein level (timepoint 72, LL): 0.03658 | TRX1 (P16783) protein level (timepoint 72, LL): 0.02099 | TRX2 (P16728) protein level (timepoint 72, LL): 0.02193 | UL24 (P16760) protein level (timepoint 72, LL): 0.1166 | UL40 (P16780) protein level (timepoint 72, LL): 0.4727 | UL47 (P16784) protein level (timepoint 72, LL): 0.06008 | UL49 (P16786) protein level (timepoint 72, LL): 0.1643 | UL69 (P16749) protein level (timepoint 72, LL): 0.2062 | UL70 (P17149) protein level (timepoint 72, LL): 0.4194 | UL83 (P06725) protein level (timepoint 72, LL): 0.02048 | UL132 (P69338) protein level (timepoint 72, LL): 0.1287 | US15 (P09718) protein level (timepoint 72, LL): 0.4326 | CVC2 (P16726) protein level (timepoint 96, DE): 0.1714 | DBP (P17147) protein level (timepoint 96, DE): 0.7941 | HELI (P16736) protein level (timepoint 96, DE): 0.8017 | IR01 (P09710) protein level (timepoint 96, DE): 0.4575 | NEC1 (P16794) protein level (timepoint 96, DE): 0.0869 | NEC2 (P16791) protein level (timepoint 96, DE): 0.2886 | RIR1 (P16782) protein level (timepoint 96, DE): 0.2098 | TRM1 (P16724) protein level (timepoint 96, DE): 0.3134 | UL4 (P17146) protein level (timepoint 96, DE): 0.2128 | UL26 (P16762) protein level (timepoint 96, DE): 0.2828 | UL32 (P08318) protein level (timepoint 96, DE): 0.1168 | UL34 (P16812) protein level (timepoint 96, DE): 0.2231 | UL35 (P16766) protein level (timepoint 96, DE): 0.1252 | UL38 (P16779) protein level (timepoint 96, DE): 0.6672 | UL44 (P16790) protein level (timepoint 96, DE): 0.176 | UL48 (P16785) protein level (timepoint 96, DE): 0.2807 | UL54 (P08546) protein level (timepoint 96, DE): 0.9075 | UL71 (P16823) protein level (timepoint 96, DE): 0.4754 | UL78 (P16751) protein level (timepoint 96, DE): 0.4235 | UL84 (P16727) protein level (timepoint 96, DE): 0.2328 | UL95 (P16801) protein level (timepoint 96, DE): 0.312 | UL96 (P16787) protein level (timepoint 96, DE): 0.4112 | UL97 (P16788) protein level (timepoint 96, DE): 0.3037 | UL98 (P16789) protein level (timepoint 96, DE): 0.4674 | UL102 (P16827) protein level (timepoint 96, DE): 0.9006 | UL104 (P16735) protein level (timepoint 96, DE): 0.3067 | UL112/UL113 (P17151) protein level (timepoint 96, DE): 0.5114 | UL114 (P16769) protein level (timepoint 96, DE): 0.7883 | UL119/UL118 (P16739) protein level (timepoint 96, DE): 0.6695 | UL128 (P16837) protein level (timepoint 96, DE): 0.1937 | US8 (P09730) protein level (timepoint 96, DE): 0.6801 | US9 (P09729) protein level (timepoint 96, DE): 0.7084 | US12 (P09721) protein level (timepoint 96, DE): 0.4505 | US13 (P09720) protein level (timepoint 96, DE): 0.8895 | US14 (P09719) protein level (timepoint 96, DE): 0.3447 | US18 (P69334) protein level (timepoint 96, DE): 0.9283 | US22 (P09722) protein level (timepoint 96, DE): 0.6231 | US23 (P09701) protein level (timepoint 96, DE): 0.5304 | US24 (P09700) protein level (timepoint 96, DE): 0.485 | US34 (P09709) protein level (timepoint 96, DE): 0.2125 | gB (P06473) protein level (timepoint 96, DE): 0.285 | IRS1 (P09715) protein level (timepoint 96, IE): 0.7821 | TRS1 (P09695) protein level (timepoint 96, IE): 0.7146 | UL13 (P16755) protein level (timepoint 96, IE): 0.2986 | UL36 (P16767) protein level (timepoint 96, IE): 0.5836 | UL37 (P16778) protein level (timepoint 96, IE): 0.8017 | UL122 (P19893) protein level (timepoint 96, IE): 0.1642 | UL123 (P13202) protein level (timepoint 96, IE): 0.4758 | CVC1 (P16799) protein level (timepoint 96, L): 0.2252 | GO (P16750) protein level (timepoint 96, L): 0.2443 | IR11 (P16809) protein level (timepoint 96, L): 0.9075 | MCP (P16729) protein level (timepoint 96, L): 0.1482 | SCP (Q7M6N6) protein level (timepoint 96, L): 0.1246 | TRM2 (P16792) protein level (timepoint 96, L): 0.19 | UL22A (P16845) protein level (timepoint 96, L): 0.3485 | UL25 (P16761) protein level (timepoint 96, L): 0.2353 | UL29 (P16764) protein level (timepoint 96, L): 0.6674 | UL30 (P16765) protein level (timepoint 96, L): 0.2355 | UL31 (P16848) protein level (timepoint 96, L): 0.2462 | UL43 (P16781) protein level (timepoint 96, L): 0.05313 | UL52 (P16793) protein level (timepoint 96, L): 0.3224 | UL76 (P16725) protein level (timepoint 96, L): 0.1513 | UL79 (P16752) protein level (timepoint 96, L): 0.3299 | UL80 (P16753) protein level (timepoint 96, L): 0.2674 | UL82 (P06726) protein level (timepoint 96, L): 0.2566 | UL87 (P16730) protein level (timepoint 96, L): 0.2646 | UL88 (P16731) protein level (timepoint 96, L): 0.3926 | UL94 (P16800) protein level (timepoint 96, L): 0.2776 | UL99 (P13200) protein level (timepoint 96, L): 0.1753 | UL103 (P16734) protein level (timepoint 96, L): 0.2489
